Laboratory results published in US20240400564A1 (Syndax Pharmaceuticals, Inc, priority 2021, published 2024).

Legend:
Menin-MLL = molecular target: T1, Menin-MLL (Homo sapiens, UniProt O00255); assay: Determination of binding constants to Menin-MLL (HTRF, EC50 and Ki); details: 0.25 nM H-FL-Menin, 3.2 nM FITC-MLL-4-43, 24 hr incubation
T1 sequence (O00255 1-610): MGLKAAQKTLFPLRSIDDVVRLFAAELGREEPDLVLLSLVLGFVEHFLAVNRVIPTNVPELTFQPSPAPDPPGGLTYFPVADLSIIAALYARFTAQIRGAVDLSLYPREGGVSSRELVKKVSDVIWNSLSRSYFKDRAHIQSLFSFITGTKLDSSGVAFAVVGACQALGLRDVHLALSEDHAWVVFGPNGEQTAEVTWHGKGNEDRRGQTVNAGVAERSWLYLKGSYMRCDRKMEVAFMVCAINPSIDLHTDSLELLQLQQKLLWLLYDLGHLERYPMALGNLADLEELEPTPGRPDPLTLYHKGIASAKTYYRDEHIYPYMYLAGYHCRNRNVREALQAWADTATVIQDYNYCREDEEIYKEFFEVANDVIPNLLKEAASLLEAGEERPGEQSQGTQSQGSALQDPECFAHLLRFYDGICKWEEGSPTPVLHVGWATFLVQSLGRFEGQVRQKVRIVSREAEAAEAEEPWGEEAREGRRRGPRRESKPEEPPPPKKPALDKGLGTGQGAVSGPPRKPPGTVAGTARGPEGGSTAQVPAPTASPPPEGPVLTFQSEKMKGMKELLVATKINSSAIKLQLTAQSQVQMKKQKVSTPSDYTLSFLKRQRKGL

hERG = hERG (Homo sapiens, UniProt Q12809); assay: Patch clamp assay (hERG tail currents, whole-cell)
Sequence of hERG (Q12809 whole entry): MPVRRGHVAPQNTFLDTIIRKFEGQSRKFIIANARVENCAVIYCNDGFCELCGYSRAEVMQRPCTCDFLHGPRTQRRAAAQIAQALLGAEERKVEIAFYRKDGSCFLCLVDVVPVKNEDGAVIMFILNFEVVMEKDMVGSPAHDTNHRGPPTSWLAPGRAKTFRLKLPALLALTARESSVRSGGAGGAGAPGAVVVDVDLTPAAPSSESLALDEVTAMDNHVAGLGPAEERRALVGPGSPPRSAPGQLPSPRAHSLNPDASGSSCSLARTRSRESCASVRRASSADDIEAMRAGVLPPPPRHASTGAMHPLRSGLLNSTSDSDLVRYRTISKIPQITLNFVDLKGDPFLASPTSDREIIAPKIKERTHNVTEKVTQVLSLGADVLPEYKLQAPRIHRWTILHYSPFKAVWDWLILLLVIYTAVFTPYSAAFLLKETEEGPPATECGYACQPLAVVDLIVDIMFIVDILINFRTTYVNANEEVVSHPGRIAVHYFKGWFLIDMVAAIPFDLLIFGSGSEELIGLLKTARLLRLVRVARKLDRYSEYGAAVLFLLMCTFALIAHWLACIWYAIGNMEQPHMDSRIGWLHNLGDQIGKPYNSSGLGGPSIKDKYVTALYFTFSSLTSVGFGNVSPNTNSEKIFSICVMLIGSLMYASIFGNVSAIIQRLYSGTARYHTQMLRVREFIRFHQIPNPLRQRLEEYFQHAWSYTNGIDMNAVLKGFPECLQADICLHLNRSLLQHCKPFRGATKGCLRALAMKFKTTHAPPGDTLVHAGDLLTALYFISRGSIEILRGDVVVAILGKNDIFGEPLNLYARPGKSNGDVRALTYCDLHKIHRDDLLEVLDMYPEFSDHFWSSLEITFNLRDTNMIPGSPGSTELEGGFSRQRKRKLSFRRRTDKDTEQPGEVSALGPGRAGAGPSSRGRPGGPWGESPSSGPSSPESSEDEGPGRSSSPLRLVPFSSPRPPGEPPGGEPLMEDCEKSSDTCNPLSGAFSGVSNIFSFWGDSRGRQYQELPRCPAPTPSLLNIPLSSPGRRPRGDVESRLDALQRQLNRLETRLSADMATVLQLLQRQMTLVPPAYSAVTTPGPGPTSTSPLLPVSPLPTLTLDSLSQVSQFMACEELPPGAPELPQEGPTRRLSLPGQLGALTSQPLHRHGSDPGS

[1] = system: MLLr leukemia cell line MV4-11; assay: Cell proliferation assay MV4;11 (CellTiter-Glo, 72 hours); format: cell-based; details: Homo sapiens; MV4-11 cells, 72 hours, CellTiter-Glo; read-out: MV4; 11 IC50
In short: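 Cells in IMDM/10% FBS, seeded from a 15,000 cells/ml suspension, were exposed for 72 h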

[2] = molecular target: T2, human Menin and N-terminal portion of human MLL (amino acids 4-43) (Homo sapiens, UniProt O00255); assay: Menin-MLL competition assay (HTRF); format: binding; details: 1 hr incubation
T2 construct: H-FL-Menin diluted to 4 nM in assay buffer
T2 sequence (O00255 1-610): T1 sequence (O00255 1-610)
In short: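 HTRF competition: 1 nM His-tagged full-length Menin with 2 nM Tb-anti-His6 and 1 nM FITC-MLL(4-43), 1 h at room temperature in Tris pH 7.4 buffer with DTT, BSA, Triton X-100; 3.16-fold compound series, 2% DMSO. Ratio 520/485 normalized to DMSO and 1 μM reference-compound controls for IC50.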

For `CCS(=O)(=O)N[C@@H]1CC[C@@H](CN2CCC3(CC2)CN(c2ncncc2Oc2ccc(F)cc2C(=O)N(C(C)C)[C@H]2C[C@@H](F)C2)C3)OC1` [Example 244, 2-((4-(7-(((2S,5R)-5-(ethylsulfonamido)tetrahydro-2H-pyran-2-yl)methyl)-2,7-diazaspiro[3.5]nonan-2-yl)pyrimidin-5-yl)oxy)-5-fluoro-N-((1s,3s)-3-fluorocyclobutyl)-N-isopropylbenzamide], the Ki (Menin-MLL) was < 1 nM, the “hERG % Remaining” value (hERG; 10 μM compound) was “+++ (≥66%)” and the “hERG % Remaining” value (hERG; 30 μM compound) was “++ (233% and ≤66%)”. For the same molecule, the IC50 [1] was < 100 nM.

In the case of `CC(C)N(C(=O)c1cc(F)ccc1Oc1cncnc1N1CC2(CCN(C[C@@H]3CC[C@@H](NS(=O)(=O)N(C)C)CO3)CC2)C1)[C@H]1CCOC1` [Example 177, 2-((4-(7-(((2S,5R)-5-((N,N-Dimethylsulfamoyl)amino)tetrahydro-2H-pyran-2-yl)methyl)-2,7-diazaspiro[3.5]nonan-2-yl)pyrimidin-5-yl)oxy)-5-fluoro-N-isopropyl-N-((S)-tetrahydrofuran-3-yl)benzamide], the Ki (Menin-MLL) is reported as < 1 nM, the “hERG % Remaining” value (hERG; 10 μM compound) is reported as “+++ (≥66%)” and the “hERG % Remaining” value (hERG; 30 μM compound) is reported as “+++ (≥66%)”. The IC50 [1] was < 100 nM.

`CCN(C(=O)c1cc(F)ccc1Oc1cncnc1N1CC2(CCN(C[C@@H]3CC[C@@H](NC(=O)NCC(F)F)CO3)CC2)C1)C(C)C` [Example 41, 2-((4-(7-(((2S,5R)-5-(3-(2,2-Difluoroethyl)ureido)tetrahydro-2H-pyran-2-yl)methyl)-2,7-diazaspiro[3.5]nonan-2-yl)pyrimidin-5-yl)oxy)-N-ethyl-5-fluoro-N-isopropylbenzamide] was tested, and the “Menin-MLL Ki HTRF Assay: EC50 (nM)” value (Menin-MLL) was “++ (250 nM and <100 nM)” and the IC50 [2] was < 100 nM.

`CCS(=O)(=O)N[C@@H]1CC[C@@H](CN2CCC3(CC2)CN(c2ncncc2Oc2ccc(F)cc2C(=O)N(C(C)C)[C@H]2C[C@@H](C(F)F)C2)C3)OC1` [Example 245, N-((1s,3s)-3-(difluoromethyl)cyclobutyl)-2-((4-(7-(((2S,5R)-5-(ethylsulfonamido)tetrahydro-2H-pyran-2-yl)methyl)-2,7-diazaspiro[3.5]nonan-2-yl)pyrimidin-5-yl)oxy)-5-fluoro-N-isopropylbenzamide] was tested, and the Ki (Menin-MLL) was < 1 nM and the IC50 [1] was < 100 nM.

`CCCNC(=O)N[C@@H]1CC[C@@H](CN2CCC3(CC2)CN(c2ncncc2Oc2ccc(F)cc2C(=O)N(CC)C(C)C)C3)OC1` [Example 38, N-Ethyl-5-fluoro-N-isopropyl-2-((4-(7-(((2S,5R)-5-(3-propylureido)tetrahydro-2H-pyran-2-yl)methyl)-2,7-diazaspiro[3.5]nonan-2-yl)pyrimidin-5-yl)oxy)benzamide] was tested, and the “Menin-MLL Ki HTRF Assay: EC50 (nM)” value (Menin-MLL) was “++ (250 nM and <100 nM)” and the IC50 [2] was < 100 nM.

With `CC(C)N(C(=O)c1cc(F)ccc1Oc1cncnc1N1CC2(CCN(C[C@@H]3CC[C@@H](NS(=O)(=O)C4CC4)CO3)CC2)C1)[C@H]1CCOC1` [Example 176, 2-((4-(7-(((2S,5R)-5-(Cyclopropanesulfonamido)tetrahydro-2H-pyran-2-yl)methyl)-2,7-diazaspiro[3.5]nonan-2-yl)pyrimidin-5-yl)oxy)-5-fluoro-N-isopropyl-N-((S)-tetrahydrofuran-3-yl)benzamide] the Ki (Menin-MLL) was < 1 nM, the IC50 (hERG) was > 50000 nM and the “hERG % Remaining” value (hERG; 10 μM compound) was “+++ (≥66%)”. For the same molecule, the “hERG % Remaining” value (hERG; 30 μM compound) was “+++ (≥66%)”, the “hERG % Remaining” value (hERG; 100 μM compound) was “+++ (≥66%)” and the IC50 [1] was < 100 nM.
